Test results reported in patent US8901133B2, “Heterocyclic compounds and uses thereof” (Infinity Pharmaceuticals, Inc., priority 2010, dated 2014).

Tests used:
[1] = target: T1, PI3Kβ (Homo sapiens, UniProt P42338); test: PI3 Kinase HTRF assay, PI3Kβ; assay type: biochemical; details: 10 μM PIP2, 10 μM ATP; read-out: PI3K β IC50
T1 construct: purchased Millipore Corporation 14-603-K
From the text: (§1) A PI3 Kinase HTRF® assay kit (cat No. 33-016) purchased from Millipore Corporation was used to screen compounds disclosed herein. This assay used specific, high affinity binding of the GRP1 pleckstrin homology (PH) domain to PIP3, the product of a Class 1A or 1B PI3 Kinase acting on its physiological substrate PIP2. During the detection phase of the assay, a complex was generated between the GST-tagged PH domain and biotinylated short chain PIP3. The biotinylated PIP3 and the GST-tagged PH domain recruited fluorophores (Streptavidin-Allophycocyanin and Europium-labeled anti-GST respectively) to form the fluorescence resonance energy transfer (FRET) architecture, generating a stable time-resolved FRET signal. The FRET complex was disrupted in a competitive manner by non-biotinylated PIP3, a product formed in the PI3 Kinase assay.
(§2) PI3 Kinase α, β, γ and δ activity was assayed using the PI3 Kinase HTRF® assay kit (catalogue No. 33-016) purchased from Millipore Corporation. Purified recombinant PI3Kα (catalogue No. 14-602-K), PI3Kβ (catalogue No. 14-603-K), PI3Kγ (catalogue No. 14-558-K) and PI3Kδ (catalogue No. 14-604-K) were obtained from Millipore Corporation. Purified recombinant PI3K enzyme was used to catalyze the phosphorylation of phosphatidylinositol 4,5-bisphosphate (PIP2 at 10 μM) to phosphatidylinositol 3,4,5-trisphosphate (PIP3) in the presence of 10 μM ATP. The assay was carried out in 384-well format and detected using a Perkin Elmer En Vision Xcite Multilabel Reader. Emission ratios were converted into percent inhibitions and imported into GraphPad Prism software. The concentration necessary to achieve inhibition of enzyme activity by 50% (IC50) was calculated using concentrations ranging from 20 μM to 0.1 nM (12-point curve). IC50 values were determined using a nonlinear regression model available in GraphPad Prism 5. […]

[2] = tested on: Balb/c splenic B cells; test: B cell activation and proliferation assay (Alamar Blue); assay type: cell-based; details: Mus musculus, read-out: B cell prolif. IC50
Protocol: The ability of one or more subject compounds to inhibit B cell activation and proliferation is determined according to standard procedures known in the art. For example, an in vitro cellular proliferation assay is established that measures the metabolic activity of live cells. The assay is performed in a 96 well microtiter plate using Alamar Blue reduction. Balb/c splenic B cells are purified over a Ficoll-Paque™ PLUS gradient followed by magnetic cell separation using a MACS B cell Isolation Kit (Miletenyi). Cells are plated in 90 ul at 50,000 cells/well in B Cell Media (RPMI+10% FBS+Penn/Strep+50 uM bME+5 mM HEPES). A compound disclosed herein is diluted in B Cell Media and added in a 10 μl volume. Plates are incubated for 30 min at 37 C and 5% CO2 (0.2% DMSO final concentration). A 50 μl B cell stimulation cocktail is then added containing either 10 ug/ml LPS or 5 ug/ml F(ab′)2 Donkey anti-mouse IgM plus 2 ng/ml recombinant mouse IL4 in B Cell Media. Plates are incubated for 72 hours at 37° C. and 5% CO2. A volume of 15 μl of Alamar Blue reagent is added to each well and plates are incubated for 5 hours at 37 C and 5% CO2. Alamar Blue fluoresce is read at 560Ex/590Em, and IC50 or EC50 values are calculated using GraphPad Prism 5.

[3] = target: T2, PI3Kγ (Homo sapiens, UniProt P48736); test: PI3 Kinase HTRF assay, PI3Kγ; assay type: biochemical; details: 10 μM PIP2, 10 μM ATP; read-out: PI3K γ IC50
T2 construct: purchased Millipore Corporation 14-558-K
T2 sequence (P48736 whole entry): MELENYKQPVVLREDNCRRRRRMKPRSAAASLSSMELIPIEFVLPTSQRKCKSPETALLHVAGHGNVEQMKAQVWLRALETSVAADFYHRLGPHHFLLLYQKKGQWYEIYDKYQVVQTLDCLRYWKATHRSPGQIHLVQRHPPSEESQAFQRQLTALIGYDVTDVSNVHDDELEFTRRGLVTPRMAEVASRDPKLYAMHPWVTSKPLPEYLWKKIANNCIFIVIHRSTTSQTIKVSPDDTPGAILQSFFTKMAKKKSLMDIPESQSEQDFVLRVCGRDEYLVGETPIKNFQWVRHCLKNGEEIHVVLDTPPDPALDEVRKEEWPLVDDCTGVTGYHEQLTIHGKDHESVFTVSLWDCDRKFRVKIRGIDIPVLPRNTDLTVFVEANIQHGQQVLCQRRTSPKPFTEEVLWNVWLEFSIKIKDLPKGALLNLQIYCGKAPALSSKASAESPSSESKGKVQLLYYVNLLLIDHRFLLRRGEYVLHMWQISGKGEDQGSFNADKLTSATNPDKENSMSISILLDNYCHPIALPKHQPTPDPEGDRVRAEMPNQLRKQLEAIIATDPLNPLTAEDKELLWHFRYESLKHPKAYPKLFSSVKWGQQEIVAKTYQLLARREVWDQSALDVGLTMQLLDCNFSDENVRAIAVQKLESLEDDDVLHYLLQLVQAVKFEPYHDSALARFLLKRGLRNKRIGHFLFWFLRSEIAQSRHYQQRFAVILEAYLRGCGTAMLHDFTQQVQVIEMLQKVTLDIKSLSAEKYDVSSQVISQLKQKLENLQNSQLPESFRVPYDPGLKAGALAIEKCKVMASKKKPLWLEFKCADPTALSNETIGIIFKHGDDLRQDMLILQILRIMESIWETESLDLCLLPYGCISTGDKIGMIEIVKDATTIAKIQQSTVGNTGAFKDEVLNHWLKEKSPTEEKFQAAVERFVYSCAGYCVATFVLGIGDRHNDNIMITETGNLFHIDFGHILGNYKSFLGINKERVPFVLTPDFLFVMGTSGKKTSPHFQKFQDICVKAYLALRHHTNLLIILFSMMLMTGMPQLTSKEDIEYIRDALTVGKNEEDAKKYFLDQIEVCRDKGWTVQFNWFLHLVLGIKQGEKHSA
From the text: as §1, §2

[4] = target: T3, PI3Kα (Homo sapiens, UniProt P42336); test: PI3 Kinase HTRF assay, PI3Kα; assay type: biochemical; details: 10 μM PIP2, 10 μM ATP; read-out: PI3K α IC50
T3 construct: purchased Millipore Corporation 14-602-K
T3 sequence (P42336 whole entry): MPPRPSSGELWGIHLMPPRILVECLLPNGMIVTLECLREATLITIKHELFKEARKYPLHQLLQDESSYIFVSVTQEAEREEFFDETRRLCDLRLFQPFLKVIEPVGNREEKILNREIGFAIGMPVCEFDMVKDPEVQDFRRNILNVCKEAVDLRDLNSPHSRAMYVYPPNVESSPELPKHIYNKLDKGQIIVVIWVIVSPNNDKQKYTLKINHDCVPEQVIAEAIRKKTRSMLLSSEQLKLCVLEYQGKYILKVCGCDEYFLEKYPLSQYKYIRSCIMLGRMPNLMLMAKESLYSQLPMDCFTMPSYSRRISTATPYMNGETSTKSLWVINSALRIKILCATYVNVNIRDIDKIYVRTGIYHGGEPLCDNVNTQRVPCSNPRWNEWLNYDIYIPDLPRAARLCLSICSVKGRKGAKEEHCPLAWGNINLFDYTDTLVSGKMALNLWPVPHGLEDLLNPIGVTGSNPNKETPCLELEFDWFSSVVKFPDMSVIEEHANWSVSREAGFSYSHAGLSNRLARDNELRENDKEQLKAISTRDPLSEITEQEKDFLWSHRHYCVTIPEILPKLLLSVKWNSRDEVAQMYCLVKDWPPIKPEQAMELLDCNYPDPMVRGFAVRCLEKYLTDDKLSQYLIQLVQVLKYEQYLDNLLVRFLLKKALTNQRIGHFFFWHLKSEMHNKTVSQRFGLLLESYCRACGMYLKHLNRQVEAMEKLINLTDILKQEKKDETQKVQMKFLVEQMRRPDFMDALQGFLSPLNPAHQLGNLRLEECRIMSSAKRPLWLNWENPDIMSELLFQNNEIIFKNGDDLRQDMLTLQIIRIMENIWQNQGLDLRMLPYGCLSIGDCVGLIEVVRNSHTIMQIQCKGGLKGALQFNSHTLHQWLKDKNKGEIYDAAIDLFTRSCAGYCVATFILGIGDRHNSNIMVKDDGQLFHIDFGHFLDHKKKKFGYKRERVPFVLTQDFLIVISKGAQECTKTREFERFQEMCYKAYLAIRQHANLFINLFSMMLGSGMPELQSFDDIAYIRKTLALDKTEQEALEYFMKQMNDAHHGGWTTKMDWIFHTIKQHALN
T3 sequence (P27986 whole entry partner): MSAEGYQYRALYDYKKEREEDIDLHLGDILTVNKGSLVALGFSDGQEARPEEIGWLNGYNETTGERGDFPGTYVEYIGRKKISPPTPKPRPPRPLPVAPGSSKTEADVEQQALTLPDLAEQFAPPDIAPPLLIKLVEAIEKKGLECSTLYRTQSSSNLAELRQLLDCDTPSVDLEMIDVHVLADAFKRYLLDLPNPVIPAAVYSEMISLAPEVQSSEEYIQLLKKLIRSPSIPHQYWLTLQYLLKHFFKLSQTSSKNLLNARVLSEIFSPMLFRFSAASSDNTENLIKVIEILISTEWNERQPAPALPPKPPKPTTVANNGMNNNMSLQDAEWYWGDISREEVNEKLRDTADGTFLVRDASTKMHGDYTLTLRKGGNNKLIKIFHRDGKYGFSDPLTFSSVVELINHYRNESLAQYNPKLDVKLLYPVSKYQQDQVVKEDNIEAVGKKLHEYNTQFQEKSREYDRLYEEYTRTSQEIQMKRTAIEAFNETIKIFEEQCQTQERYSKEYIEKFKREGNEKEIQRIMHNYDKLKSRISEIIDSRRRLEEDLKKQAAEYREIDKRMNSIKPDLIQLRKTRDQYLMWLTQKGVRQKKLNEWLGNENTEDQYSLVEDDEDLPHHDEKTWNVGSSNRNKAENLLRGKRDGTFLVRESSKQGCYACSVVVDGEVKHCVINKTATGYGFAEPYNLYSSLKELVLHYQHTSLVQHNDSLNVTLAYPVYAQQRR
From the text: as §1, §2

[5] = target: T4, PI3Kδ (Homo sapiens, UniProt O00329); test: PI3 Kinase HTRF assay, PI3Kδ; assay type: biochemical; details: 10 μM PIP2, 10 μM ATP; read-out: PI3K δ IC50
T4 construct: purchased Millipore Corporation 14-604-K
T4 sequence (O00329 whole entry): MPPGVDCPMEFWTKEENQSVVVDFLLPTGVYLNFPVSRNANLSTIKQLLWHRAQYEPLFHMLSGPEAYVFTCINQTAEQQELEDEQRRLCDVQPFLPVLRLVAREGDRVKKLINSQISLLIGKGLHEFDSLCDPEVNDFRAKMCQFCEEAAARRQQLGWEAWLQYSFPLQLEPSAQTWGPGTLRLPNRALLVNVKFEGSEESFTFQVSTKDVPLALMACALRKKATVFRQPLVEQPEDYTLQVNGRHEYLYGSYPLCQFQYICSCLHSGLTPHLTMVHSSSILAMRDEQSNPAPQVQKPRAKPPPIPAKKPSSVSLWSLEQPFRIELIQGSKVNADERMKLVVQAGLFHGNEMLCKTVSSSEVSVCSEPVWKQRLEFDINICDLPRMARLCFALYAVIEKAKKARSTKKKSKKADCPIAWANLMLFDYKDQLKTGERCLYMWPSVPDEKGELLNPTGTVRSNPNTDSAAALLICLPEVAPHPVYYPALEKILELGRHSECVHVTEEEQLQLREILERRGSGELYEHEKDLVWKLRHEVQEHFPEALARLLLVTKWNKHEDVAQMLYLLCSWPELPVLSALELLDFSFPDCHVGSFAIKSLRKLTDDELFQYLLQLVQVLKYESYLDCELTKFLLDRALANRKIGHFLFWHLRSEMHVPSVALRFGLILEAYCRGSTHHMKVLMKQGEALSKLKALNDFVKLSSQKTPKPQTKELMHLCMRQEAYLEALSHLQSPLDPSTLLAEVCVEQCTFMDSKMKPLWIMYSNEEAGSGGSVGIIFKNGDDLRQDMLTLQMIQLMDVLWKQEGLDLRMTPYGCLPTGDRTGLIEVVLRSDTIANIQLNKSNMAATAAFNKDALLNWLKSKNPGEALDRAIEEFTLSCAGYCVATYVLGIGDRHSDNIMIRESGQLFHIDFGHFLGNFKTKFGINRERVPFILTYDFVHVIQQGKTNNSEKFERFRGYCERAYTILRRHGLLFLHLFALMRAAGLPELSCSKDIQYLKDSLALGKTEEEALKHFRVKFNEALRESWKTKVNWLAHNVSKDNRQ
T4 sequence (P27986 whole entry partner): as the sequence (P27986 whole entry partner) above
From the text: as §1, §2

T1 sequence (P42338 whole entry): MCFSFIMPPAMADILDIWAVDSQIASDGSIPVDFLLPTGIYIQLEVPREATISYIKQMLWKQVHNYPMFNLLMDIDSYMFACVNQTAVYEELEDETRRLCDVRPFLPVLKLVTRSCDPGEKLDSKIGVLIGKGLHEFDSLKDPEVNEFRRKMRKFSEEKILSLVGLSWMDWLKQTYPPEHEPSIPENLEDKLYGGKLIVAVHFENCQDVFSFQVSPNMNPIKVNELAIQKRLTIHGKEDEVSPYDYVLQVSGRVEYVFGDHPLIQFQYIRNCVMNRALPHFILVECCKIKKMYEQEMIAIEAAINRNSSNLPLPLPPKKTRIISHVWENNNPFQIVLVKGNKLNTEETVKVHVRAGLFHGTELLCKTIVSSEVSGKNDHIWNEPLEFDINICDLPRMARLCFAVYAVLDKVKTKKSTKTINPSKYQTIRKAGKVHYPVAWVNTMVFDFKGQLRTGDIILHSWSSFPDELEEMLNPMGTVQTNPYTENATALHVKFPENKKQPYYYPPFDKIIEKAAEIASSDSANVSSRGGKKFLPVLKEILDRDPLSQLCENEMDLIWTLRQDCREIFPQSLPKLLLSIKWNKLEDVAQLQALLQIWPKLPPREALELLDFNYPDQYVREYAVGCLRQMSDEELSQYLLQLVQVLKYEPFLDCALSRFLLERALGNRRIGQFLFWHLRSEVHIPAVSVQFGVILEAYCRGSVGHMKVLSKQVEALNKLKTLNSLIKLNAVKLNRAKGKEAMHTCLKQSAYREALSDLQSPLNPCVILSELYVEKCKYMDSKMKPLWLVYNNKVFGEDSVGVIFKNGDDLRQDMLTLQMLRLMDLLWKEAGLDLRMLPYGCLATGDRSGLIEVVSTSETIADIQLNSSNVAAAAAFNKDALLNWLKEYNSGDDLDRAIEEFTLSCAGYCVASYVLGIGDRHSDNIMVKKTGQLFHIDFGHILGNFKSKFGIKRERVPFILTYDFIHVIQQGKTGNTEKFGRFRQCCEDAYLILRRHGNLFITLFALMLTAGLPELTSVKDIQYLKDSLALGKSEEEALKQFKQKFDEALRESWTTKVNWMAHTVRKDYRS
T1 sequence (P27986 whole entry partner): as the sequence (P27986 whole entry partner) above

SMILES | IC50 [1] | IC50 [2] | IC50 [3] | IC50 [4] | IC50 [5]
C[C@H](Nc1ncnc2[nH]cnc12)c1cc2cccc(Cl)c2c(CCN2CCOCC2)n1 [Compound 4] | < 10 µM | < 0.1 µM | < 10 µM | < 10 µM | < 0.1 µM
C[C@H](Nc1ncnc2[nH]cnc12)c1cc2cccc(Cl)c2c(CN2CCOCC2)n1 [Compound 7] | > 10 µM | < 0.1 µM | < 10 µM | > 10 µM | < 0.1 µM
C[C@H](Nc1ncnc2[nH]cnc12)c1cc2cccc(Cl)c2c(CN2CCC(F)(F)C2)n1 [Compound 8] | < 10 µM | < 1 µM | < 1 µM | < 10 µM | < 1 µM
C[C@H](Nc1ncnc2[nH]cnc12)c1cc2cccc(Cl)c2c(C(=O)N2CCOCC2)n1 [Compound 13] | < 10 µM | < 0.1 µM | < 0.1 µM | > 10 µM | < 0.1 µM
C[C@H](Nc1ncnc2[nH]cnc12)c1cc2cccc(Cl)c2c(C(=O)N2CCCC2)n1 [Compound 14] | > 10 µM | < 0.1 µM | < 10 µM | > 10 µM | < 0.1 µM
C[C@H](Nc1ncnc2[nH]cnc12)c1cc2cccc(Cl)c2c(C(=O)N2CCN(C)CC2)n1 [Compound 15] | > 10 µM | < 0.1 µM | < 10 µM | < 10 µM | < 0.1 µM
C[C@H](Nc1ncnc2[nH]cnc12)c1cc2cccc(Cl)c2c(C(=O)N2C3CCC2COC3)n1 [Compound 16] | < 10 µM | < 0.1 µM | < 10 µM | > 10 µM | < 0.1 µM
C[C@@H]1CN(C(=O)c2nc([C@H](C)Nc3ncnc4[nH]cnc34)cc3cccc(Cl)c23)CCN1 [Compound 17] | < 10 µM | < 1 µM | > 10 µM | > 10 µM | < 0.1 µM
C[C@H](Nc1ncnc2[nH]cnc12)c1cc2cccc(Cl)c2c(C(=O)N2CCN[C@@H](C)C2)n1 [Compound 18] | < 1 µM | < 1 µM | < 10 µM | < 10 µM | < 0.1 µM
C[C@H](Nc1ncnc2[nH]cnc12)c1cc2cccc(Cl)c2c(C(=O)N2CC3CCC(C2)O3)n1 [Compound 19] | < 10 µM | < 0.1 µM | < 1 µM | > 10 µM | < 0.1 µM
C[C@H](Nc1ncnc2[nH]cnc12)c1cc2cccc(Cl)c2c(C(=O)N2CCC(F)(F)C2)n1 [Compound 20] | > 10 µM | < 0.1 µM | < 1 µM | > 10 µM | < 0.1 µM
C[C@H](Nc1ncnc2[nH]cnc12)c1cc2cccc(Cl)c2c(C(=O)N2CC(F)(F)C2)n1 [Compound 21] | > 10 µM | < 0.1 µM | < 1 µM | > 10 µM | < 0.1 µM
C[C@H](Nc1ncnc2[nH]cnc12)c1cc2cccc(Cl)c2c(C(=O)NC2CCC2)n1 [Compound 23] | > 10 µM | < 0.1 µM | < 10 µM | > 10 µM | < 0.1 µM
C[C@H](Nc1ncnc2[nH]cnc12)c1cc2cccc(Cl)c2c(C(=O)N2CCC2)n1 [Compound 24] | < 10 µM | < 1 µM | < 10 µM | > 10 µM | < 1 µM
C[C@H](Nc1ncnc2[nH]cnc12)c1cc2cccc(Cl)c2c(C(=O)Nc2ccccc2)n1 [Compound 25] | < 10 µM | < 1 µM | < 10 µM | > 10 µM | < 0.1 µM
C[C@H](Nc1ncnc2[nH]cnc12)c1cc2cccc(Cl)c2c(C(=O)NCc2ccccc2)n1 [Compound 26] | < 10 µM | < 0.1 µM | < 1 µM | > 10 µM | < 0.1 µM
C[C@H](Nc1ncnc2[nH]cnc12)c1cc2cccc(Cl)c2c(CC(=O)N2CCCC2)n1 [Compound 36] | < 10 µM | < 1 µM | < 10 µM | > 10 µM | < 0.1 µM
C[C@H](Nc1ncnc2[nH]cnc12)c1cc2cccc(Cl)c2c(CC(=O)N2CCN(C)CC2)n1 [Compound 37] | > 10 µM | < 1 µM | > 10 µM | > 10 µM | < 1 µM
CC(=O)NCCOc1nc([C@H](C)Nc2ncnc3[nH]cnc23)cc2cccc(Cl)c12 [Compound 40, (S)—N-(2-(3-(1-(9H-purin-6-ylamino)ethyl)-8-chloroisoquinolin-1-yloxy)ethyl)acetamide] | < 10 µM | < 0.1 µM | < 1 µM | < 10 µM | < 0.1 µM
C[C@H](Nc1ncnc2[nH]cnc12)c1cc2cccc(Cl)c2c(OCC(=O)N2CCN(C)CC2)n1 [Compound 42] | < 10 µM | < 1 µM | > 10 µM | > 10 µM | < 0.1 µM
C[C@H](Nc1ncnc2[nH]cnc12)c1cc2cccc(Cl)c2c(OCC(=O)N2CCOCC2)n1 [Compound 43] | > 10 µM | < 0.1 µM | < 1 µM | < 10 µM | < 0.1 µM
CNC(=O)COc1nc([C@H](C)Nc2ncnc3[nH]cnc23)cc2cccc(Cl)c12 [Compound 44] | < 10 µM | < 1 µM | < 1 µM | < 10 µM | < 0.1 µM
C[C@H](Nc1ncnc2[nH]cnc12)c1cc2cccc(Cl)c2c(OCC(=O)N2CCCC2)n1 [Compound 45] | > 10 µM | < 1 µM | < 10 µM | > 10 µM | < 0.1 µM
C[C@H](Nc1ncnc2[nH]cnc12)c1cc2cccc(Cl)c2c(N2CCN(C)CC2)n1 [Compound 46, (S)—N-(1-(8-chloro-1-(4-methylpiperazin-1-yl)isoquinolin-3-yl)ethyl)-9H-purin-6-amine] | < 10 µM | < 0.1 µM | > 10 µM | > 10 µM | < 0.1 µM
CC(C)N1CCC(Oc2nc([C@H](C)Nc3ncnc4[nH]cnc34)cc3cccc(Cl)c23)CC1 [Compound 47, (S)—N-(1-(8-chloro-1-(1-isopropylpiperidin-4-yloxy)isoquinolin-3-yl)ethyl)-9H-purin-6-amine] | < 10 µM | < 0.1 µM | > 10 µM | < 10 µM | < 0.1 µM
C[C@H](Nc1ncnc2[nH]cnc12)c1cc2c(F)cccc2c(CCN2CCOCC2)n1 [Compound 53] | > 10 µM | < 0.1 µM | > 10 µM | > 10 µM | < 0.1 µM
Cc1cccc2cc([C@H](C)Nc3ncnc4[nH]cnc34)nc(OC3CCN(C(C)C)CC3)c12 [Compound 57] | < 10 µM | < 1 µM | > 10 µM | > 10 µM | < 0.1 µM
C[C@H](Nc1ncnc2[nH]cnc12)c1cc2c(F)ccc(Cl)c2c(CCN2CCOCC2)n1 [Compound 68] | > 10 µM | < 0.1 µM | < 10 µM | < 10 µM | < 0.1 µM
C[C@H](Nc1ccnc2ccnn12)c1cc2cccc(Cl)c2c(CCN2CCOCC2)n1 [Compound 73] | < 1 µM | < 0.1 µM | < 10 µM | < 10 µM | < 0.1 µM
C[C@H](Nc1ncnc2ccccc12)c1cc2cccc(Cl)c2c(CCN2CCOCC2)n1 [Compound 74] | < 10 µM | < 1 µM | < 10 µM | < 10 µM | < 0.1 µM
